Measured values taken from US20260022143A1, “Cyclic Peptide Inhibitors of IL-23” (JANSSEN PHARMACEUTICA NV, priority 2022, published 2026).
Starred links: 1 amine or outer side, 2 acyl side, 3 side chain; linkers in the order of their positions; H or OH if unused. Positions of bridges follow the written chain, without caps; N, C: chain ends. Non-standard residues stand in square brackets, D forms with d. Residues, ends and D or L forms follow the SMILES beside them. Groups on a side chain read outwards from the residue. ξ: configuration not given here. *: point of attachment. X78 = N=C(N)NCCc1cn(-c2ccc(C[C@H](N[*:1])C(=O)[*:2])cc2)nn1; Me3N+(CH2)2O(CH2)2O(CH2)2CO = C[N+](C)(C)CCOCCOCCC(=O)*; CH2CH2OCH2CH2OCH2CH2NMe3+ = C[N+](C)(C)CCOCCOCC*; Trp(7-Me) = Cc1cccc2c(C[C@H](N)C(=O)O)c[nH]c12; Abu(4-yl) = O=C([C@H](CC[*:3])N[*:1])[*:2]; Pentanoyl(5-guanidino) = NC(N)=NCCCCC(=O)*; γGlu = O=C(O)[C@H](CCC(=O)[*:2])N[*:1]; 2Nal = N[C@@H](Cc1ccc2ccccc2c1)C(=O)O; AEF = NCCOc1ccc(C[C@H](N)C(=O)O)cc1; 3Pal = N[C@@H](Cc1cccnc1)C(=O)O; Lys(Me) = CNCCCC[C@H](N)C(=O)O; Pen = CC(C)(S)[C@H](N)C(=O)O; Lauroyl = CCCCCCCCCCCC(=O)*; ξLys(Me) = CNCCCCC(N)C(=O)O; αMeC = C[C@](N)(CS)C(=O)O; Ac6c = NC1(C(=O)O)CCCCC1; Nle = CCCC[C@H](N)C(=O)O; Thp = NC1(C(=O)O)CCOCC1; X3 = C[N+](C)(C)CCCCC*; AEEA = NCCOCCOCC(=O)O; Sar = CNCC(=O)O

Molecular target: T1, IL-23R (Homo sapiens, UniProt Q5VWK5)
T1 construct: host or cells: HEK293
T1 sequence (Q5VWK5 24-629): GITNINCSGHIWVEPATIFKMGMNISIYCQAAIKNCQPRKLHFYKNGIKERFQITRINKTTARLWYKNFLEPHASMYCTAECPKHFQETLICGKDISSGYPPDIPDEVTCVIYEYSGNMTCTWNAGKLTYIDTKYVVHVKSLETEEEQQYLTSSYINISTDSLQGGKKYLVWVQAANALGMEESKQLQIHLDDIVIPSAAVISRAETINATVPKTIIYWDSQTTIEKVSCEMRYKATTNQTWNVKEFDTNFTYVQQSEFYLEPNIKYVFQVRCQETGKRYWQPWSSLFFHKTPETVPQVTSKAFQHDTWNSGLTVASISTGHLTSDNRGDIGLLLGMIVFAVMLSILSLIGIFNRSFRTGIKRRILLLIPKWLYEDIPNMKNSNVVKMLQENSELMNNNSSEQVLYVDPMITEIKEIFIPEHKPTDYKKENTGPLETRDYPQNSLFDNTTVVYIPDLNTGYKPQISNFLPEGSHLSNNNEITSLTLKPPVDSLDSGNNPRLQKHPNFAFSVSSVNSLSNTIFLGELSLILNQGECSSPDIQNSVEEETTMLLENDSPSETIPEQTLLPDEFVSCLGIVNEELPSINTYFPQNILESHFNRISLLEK
Assay: IL23R Reporter Assay
Type: cell-based
Conditions: HEK293 cells containing IL-23R, IL-12RP1 and STAT-inducible firefly luciferase reporter; 10 ng/mL IL-23 (EC90); 5 h at 37° C.; read-out: IL23R Reporter Assay

Row | Structure (SMILES) | IC50
1 | CCCCCCCCCCCC(=O)N[C@@H](CCC(=O)NCCOCCOCC(=O)NCCOCCOCC(=O)NCCCC[C@@H]1NC(=O)[C@@H](NC(=O)CCOCCOCC[N+](C)(C)C)C(C)(C)SSC(C)(C)[C@@H](C(=O)N[C@@H](Cc2ccc(OCCCCC[N+](C)(C)C)cc2)C(=O)N[C@@H](Cc2ccc3ccccc3c2)C(=O)NC2(C(=O)N[C@@H](CCCCN(C)C(C)=O)C(=O)N[C@@H](CC(N)=O)C(=O)N[C@@H](Cc3cccnc3)C(=O)N(C)CC(=O)N(C)C)CCOCC2)NC(=O)[C@H](CCCCN(C)C(C)=O)NC(=O)[C@H](Cc2c[nH]c3c(C)cccc23)NC(=O)[C@H]([C@@H](C)O)NC1=O)C(=O)O [compound 387, cPEG3aCO-Pen(3)-K(PEG2PEG2gEC12)-T-7MeW-K(NMeAc)-Pen(3)-TMAPF-2Nal-THP-K(NMeAc)-N-3Pya-Sar-CON(Me)2] ({Me3N+(CH2)2O(CH2)2O(CH2)2CO}-[Pen]K([AEEA-AEEA-γGlu-Lauroyl])T[Trp(7-Me)][Lys(Me)](Ac)[Pen]Y(X3)[2Nal][Thp][Lys(Me)](Ac)N[3Pal][Sar]-NMe2; disulfide 1-6) | 12 nM
2 | CC(=O)NCCCC[C@@H]1NC(=O)[C@H](Cc2c[nH]c3c(-c4cccc(NC(C)=O)c4)cccc23)NC(=O)[C@H]([C@@H](C)O)NC(=O)[C@H](CC(N)=O)NC(=O)[C@@H](NC(=O)CCOCCOCC[N+](C)(C)C)C(C)(C)SSC(C)(C)[C@@H](C(=O)N[C@@H](Cc2ccc(OCCNC(=N)N)cc2)C(=O)N[C@@H](Cc2ccc3ccccc3c2)C(=O)NC2(C(=O)N[C@@H](CCCCN(C)C(C)=O)C(=O)N[C@@H](CC(N)=O)C(=O)N[C@@H](Cc3cncc(C)c3)C(=O)N(C)CC(N)=O)CCOCC2)NC1=O [compound 481, cPEG3aCO-Pen(3)-N-T-7(3NAcPh)W-K(Ac)-Pen(3)-AEF(G)-2Nal-THP-K(NMeAc)-N-5MePyridinAla-Sar-CONH2] | 3.5 nM
3 | CCCC[C@H](NC(=O)C1(NC(=O)[C@H](Cc2ccc3ccccc3c2)NC(=O)[C@H](Cc2ccc(OCCOCCOCC[N+](C)(C)C)cc2)NC(=O)[C@H]2NC(=O)[C@H](CCCCN(C)C(C)=O)NC(=O)[C@H](Cc3c[nH]c4c(C)cccc34)NC(=O)[C@H]([C@@H](C)O)NC(=O)[C@H](CC(=O)N(C)C)NC(=O)[C@@H](NC(=O)CCOCCOCC[N+](C)(C)C)C(C)(C)SSC2(C)C)CCOCC1)C(=O)N[C@@H](CC(N)=O)C(=O)N[C@@H](Cc1cccnc1)C(=O)N(C)CC(=O)N(C)C [compound 520, cPEG3aCO-Pen(3)-N(N(Me)2)-T-7MeW-K(NMeAc)-Pen(3)-APEG3F-2Nal-THP-Nle-N-3Pya-Sar-CON(Me)2] ({Me3N+(CH2)2O(CH2)2O(CH2)2CO}-[Pen]D(NMe2)T[Trp(7-Me)][Lys(Me)](Ac)[Pen]Y(CH2CH2OCH2CH2OCH2CH2NMe3+)[2Nal][Thp][Nle]N[3Pal][Sar]-NMe2; disulfide 1-6) | 1.4 nM
4 | CC(=O)NCCCC[C@@H]1NC(=O)[C@H](Cc2c[nH]c3c(C)cccc23)NC(=O)[C@H]([C@@H](C)O)NC(=O)[C@H](CC(N)=O)NC(=O)[C@@H](NC(=O)CCOCCOCC[N+](C)(C)C)C(C)(C)SSC(C)(C)[C@@H](C(=O)N[C@@H](Cc2ccc(-n3cc(CCNC(=N)N)nn3)cc2)C(=O)N[C@@H](Cc2ccc3ccccc3c2)C(=O)NC2(C(=O)N[C@@H](CCCCNC(C)=O)C(=O)N[C@@H](CC(N)=O)C(=O)N[C@@H](Cc3cccnc3)C(=O)N(C)CC(N)=O)CCOCC2)NC1=O [compound 521, cPEG3aCO-Pen(3)-N-T-7MeW-K(Ac)-Pen(3)-F(4TzlG2)-2Nal-THP-K(Ac)-N-3Pya-Sar-CONH2] ({Me3N+(CH2)2O(CH2)2O(CH2)2CO}-[Pen]NT[Trp(7-Me)]K(Ac)[Pen][X78][2Nal][Thp]K(Ac)N[3Pal][Sar]-NH2; disulfide 1-6) | 1.4 nM
5 | CC(=O)NCCCC[C@@H]1NC(=O)[C@H](Cc2c[nH]c3ccccc23)NC(=O)[C@H]([C@@H](C)O)NC(=O)[C@H](CC(N)=O)NC(=O)[C@@H](NC(=O)[C@@H](CCCNC(=N)N)NC(=O)CCOCCOCC[N+](C)(C)C)CCSC[C@@](C)(C(=O)N[C@@H](Cc2ccc(OCCN)cc2)C(=O)N[C@@H](Cc2ccc3ccccc3c2)C(=O)NC2(C(=O)N[C@@H](CCCCNC(C)=O)C(=O)N[C@@H](CC(N)=O)C(=O)N[C@@H](Cc3cccnc3)C(=O)N(C)CC(N)=O)CCCCC2)NC1=O [compound 548, cPEG3aCO-r-Abu(1)-N-T-W-K(Ac)-aMeC(1)-AEF-2Nal-THP-K(Ac-N-3Pya-Sar-CONH2] ({Me3N+(CH2)2O(CH2)2O(CH2)2CO}-[dR][Abu(4-yl)]NTWK(Ac)[αMeC][AEF][2Nal][Ac6c]K(Ac)N[3Pal][Sar]-NH2; thioether 2-7) | 6.4 nM
6 | CC(=O)NCCCC[C@@H]1NC(=O)[C@H](Cc2c[nH]c3c(C)cccc23)NC(=O)[C@H]([C@@H](C)O)NC(=O)[C@H](CC(N)=O)NC(=O)[C@@H](NC(C)=O)C(C)(C)SSC(C)(C)[C@@H](C(=O)N[C@@H](Cc2ccc(OCCCC[N+](C)(C)C)cc2)C(=O)N[C@@H](Cc2ccc3ccccc3c2)C(=O)NC2(C(=O)N[C@@H](CCC(=O)O)C(=O)N[C@@H](CC(N)=O)C(=O)N[C@@H](Cc3cccnc3)C(=O)N(C)CC(N)=O)CCOCC2)NC1=O [compound 550, MeCO-Pen(3)-N-T-7MeW-K(Ac)-Pen(3)-TMA4F-2Nal-THP-N-3Pya-Sar-CONH2] | 5.5 nM
7 | CC(=O)N(C)CCCC[C@@H]1NC(=O)[C@H](Cc2c[nH]c3c(C)cccc23)NC(=O)[C@H]([C@@H](C)O)NC(=O)[C@H](CC(=O)N(C)C)NC(=O)[C@@H](NC(=O)CCOCCOCC[N+](C)(C)C)C(C)(C)SSC(C)(C)[C@@H](C(=O)N[C@@H](Cc2ccc(OCCNC(=O)CCOCCOCC[N+](C)(C)C)cc2)C(=O)N[C@@H](Cc2ccc3ccccc3c2)C(=O)NC2(C(=O)N[C@@H](CCCCN(C)C(C)=O)C(=O)N[C@@H](CC(N)=O)C(=O)N[C@@H](Cc3cccnc3)C(=O)N(C)CC(=O)N(C)C)CCOCC2)NC1=O [compound 571, cPEG3aCO-Pen(3)-N(N(Me)2)-T-7MeW-K(NMeAc)-Pen(3)-AEF(cPEG3a)-2Nal-THP-K(NMeAc)-N-3Pya-Sar-CONMe2] ({Me3N+(CH2)2O(CH2)2O(CH2)2CO}-[Pen]D(NMe2)T[Trp(7-Me)][Lys(Me)](Ac)[Pen][AEF](Me3N+(CH2)2O(CH2)2O(CH2)2CO)[2Nal][Thp][Lys(Me)](Ac)N[3Pal][Sar]-NMe2; disulfide 1-6) | 3.5 nM

Next, values leading:

Row | IC50 | Structure (SMILES)
8 | 4.5 nM | CC(=O)N(C)CCCC[C@@H]1NC(=O)[C@H](Cc2c[nH]c3c(C)cccc23)NC(=O)[C@H]([C@@H](C)O)NC(=O)[C@H](CC(=O)N(C)C)NC(=O)[C@@H](NC(=O)CCCCNC(=N)N)C(C)(C)SSC(C)(C)[C@@H](C(=O)N[C@@H](Cc2ccc(OCCCCC[N+](C)(C)C)cc2)C(=O)N[C@@H](Cc2ccc3ccccc3c2)C(=O)NC2(C(=O)N[C@@H](CCCCN(C)C(C)=O)C(=O)N[C@@H](CC(N)=O)C(=O)N[C@@H](Cc3cccnc3)C(=O)N(C)CC(=O)N(C)C)CCOCC2)NC1=O [compound 403, 4cpgCO-Pen(3)-N(N(Me)2)-T-7MeW-K(NMeAc)-Pen(3)-TMAPF-2Nal-THP-K(NMeAc)-N-3Pya-Sar-CON(Me)2] ({Pentanoyl(5-guanidino)}-[Pen]D(NMe2)T[Trp(7-Me)][Lys(Me)](Ac)[Pen]Y(X3)[2Nal][Thp][Lys(Me)](Ac)N[3Pal][Sar]-NMe2; disulfide 1-6)
9 | 5.5 nM | CC(=O)NCCCC[C@@H]1NC(=O)[C@H](Cc2c[nH]c3c(C)cccc23)NC(=O)[C@H]([C@@H](C)O)NC(=O)[C@H](CC(N)=O)NC(=O)[C@@H](NC(=O)CCOCCOCC[N+](C)(C)C)C(C)(C)SSC(C)(C)[C@@H](C(=O)N[C@@H](Cc2ccc(OC(F)F)cc2)C(=O)N[C@@H](Cc2ccc3ccccc3c2)C(=O)NC2(C(=O)N[C@@H](CCCCNC(C)=O)C(=O)N[C@@H](CC(N)=O)C(=O)N[C@@H](Cc3cccnc3)C(=O)N(C)CC(N)=O)CCOCC2)NC1=O [compound 551, cPEG3aCO-Pen(3)-N-T-7MeW-K(Ac)-Pen(3)-YCF2H-2Nal-THP-K(Ac-N-3Pya-Sar-CONH2]
10 | 1390 nM | CC(=O)N(C)CCCCC(NC(=O)C1(NC(=O)[C@H](Cc2ccc3ccccc3c2)NC(=O)[C@H](Cc2ccc(OCCOCCOCC[N+](C)(C)C)cc2)NC(=O)[C@H]2NC(=O)[C@H](CCCCN(C)C(C)=O)NC(=O)[C@H](Cc3c[nH]c4c(C)cccc34)NC(=O)[C@H]([C@@H](C)O)NC(=O)[C@H](CC(=O)N(C)C)NC(=O)[C@@H](NC(=O)CCOCCOCC[N+](C)(C)C)C(C)(C)SSC2(C)C)CCOCC1)C(=O)N[C@@H](CC(N)=O)C(=O)N[C@@H](C)C(=O)N(C)CC(=O)N(C)C (stereo partly shown) [compound 574, cPEG3aCO-Pen(3)-N(N(Me)2)-T-7MeW-K(NMeAc)-Pen(3)-APEG3F-2Nal-THP-K(NMeAc)-N-A-Sar-CON(Me)2] ({Me3N+(CH2)2O(CH2)2O(CH2)2CO}-[Pen]D(NMe2)T[Trp(7-Me)][Lys(Me)](Ac)[Pen]Y(CH2CH2OCH2CH2OCH2CH2NMe3+)[2Nal][Thp][ξLys(Me)](Ac)NA[Sar]-NMe2; disulfide 1-6)
